Assay results from the supplement of paper PMC10307832.

Tests used:
Test in all cases: relative viability (nuclei count vs DMSO), 5 days (fraction); higher = more cells survive
AT-7519 + AZD7762 = compound: O=C(NC1CCNCC1)c1n[nH]cc1NC(=O)c1c(Cl)cccc1Cl [AT-7519] + NC(=O)Nc1cc(-c2cccc(F)c2)sc1C(=O)N[C@H]1CCCNC1 [AZD7762] (partner 0.2 µM)
In short: (§1)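 One day after seeding in 1536-well plates, lung cancer cell lines were dosed by pin tool. Dosing was either single-drug or a fixed anchor-drug dose plus five library-drug doses (not always all listed) in √10 steps. After 5 days, nuclei were stained in one fix-and-stain step and counted on 4× images, and relative viability is the nuclei count of treated wells over that of vehicle wells, given as the median of duplicate plates.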

[1] = compound: C1=CC2=C(C=C(C(=C2N=C1)O)N=NC3=CC4=C(C=C3)C=C(C=C4)S(=O)(=O)O)S(=O)(=O)O + CS(=O)(=O)N1CCN(Cc2cc3nc(-c4cccc5[nH]ncc45)nc(N4CCOCC4)c3s2)CC1 [Pictilisib] (partner 1 µM)
In short: as §1

[2] = compound: C1=CC2=C(C=C(C(=C2N=C1)O)N=NC3=CC4=C(C=C3)C=C(C=C4)S(=O)(=O)O)S(=O)(=O)O + Nc1ncn([C@H]2C[C@H](O)[C@@H](CO)O2)c(=O)n1 [Decitabine] (partner 2 µM)
In short: as §1

AT-7519 + Trametinib = compound: O=C(NC1CCNCC1)c1n[nH]cc1NC(=O)c1c(Cl)cccc1Cl [AT-7519] + CC(=O)Nc1cccc(-n2c(=O)n(C3CC3)c(=O)c3c(Nc4ccc(I)cc4F)n(C)c(=O)c(C)c32)c1 [Trametinib] (partner 0.02 µM)
In short: as §1

Cell Line	relative viability (AT-7519 + AZD7762; first compound 0.01 µM)	relative viability (AT-7519 + AZD7762; first compound 0.03162 µM)	relative viability (AT-7519 + AZD7762; first compound 0.3162 µM)	relative viability (AT-7519 + AZD7762; first compound 1 µM)	relative viability ([1]; first compound 0.08 µM)	relative viability ([1]; first compound 0.253 µM)	relative viability ([1]; first compound 0.8 µM)	relative viability ([1]; first compound 2.53 µM)	relative viability ([1]; first compound 8 µM)	relative viability ([2]; first compound 0.08 µM)	relative viability ([2]; first compound 0.253 µM)	relative viability ([2]; first compound 0.8 µM)	relative viability ([2]; first compound 2.53 µM)	relative viability ([2]; first compound 8 µM)	relative viability (AT-7519 + Trametinib; first compound 0.01 µM)	relative viability (AT-7519 + Trametinib; first compound 0.03162 µM)	relative viability (AT-7519 + Trametinib; first compound 0.3162 µM)	relative viability (AT-7519 + Trametinib; first compound 1 µM)
LU99A	0.329	0.29	0.538	0.342	0.391	0.314	0.251	0.297	0.37	0.91	0.818	0.767	0.838	0.705	0.67	0.53	0.52	0.24
LXF-289	1.1	1.14	1.1	1.23	0.874	0.684	0.73	0.793	0.8	0.412	0.383	0.395	0.371	0.31	0.7	0.638	0.657	0.493
NCI-H23	0.258	0.262	0.242	0.309	0.516	0.514	0.365	0.45	0.585	0.331	0.304	0.335	0.311	0.302	0.338	0.355	0.33	0.164
NCI-H322M	0.534	0.533	0.578	0.639	0.505	0.473	0.444	0.442	0.524	0.764	0.715	0.708	0.723	0.768	0.531	0.444	0.539	0.525
NCI-H358	0.423	0.558	0.521	0.37	0.37	0.35	0.323	0.356	0.363	0.245	0.216	0.218	0.203	0.132	0.127	0.13	0.253	0.0967
NCI-H441	1.01	1.16	1.2	1.02	0.475	0.49	0.37	0.528	0.498	0.245	0.246	0.238	0.252	0.248	0.429	0.474	0.32	0.23
NCI-H460	0.665	0.653	1.02	0.693	0.356	0.366	0.336	0.344	0.104	0.506	0.487	0.501	0.497	0.387	0.193	0.155	0.129	0.0266
NCI-H596	1.22	1.06	0.982	0.938	0.408	0.385	0.377	0.428	0.417	1.1	0.954	1.01	1.02	1.38	0.86	0.811	0.662	0.662
NCI-H647	0.353	0.481	0.552	0.361	0.357		0.436	0.505	0.394	0.35	0.412	0.415	0.45	0.401	0.439	0.342	0.475	0.159
NCI-H650	1.07	0.953	0.887	1.29	0.907	0.859	0.909	0.92	0.833	0.324	0.354	0.329	0.317	0.31	1.02	0.924	1.04	0.348
NCI-H727	0.571	0.494	0.604	0.414	0.591	0.311	0.217	0.358	0.482	0.951	0.854	0.793	0.929	0.801	0.34	0.414	0.37	0.384
NCI-H838	0.925	0.949	0.936	0.861	0.42	0.42	0.437	0.417	0.518	0.469	0.441	0.434	0.514	0.44	0.475	0.443	0.529	0.0788
NCI-H1355	0.71	0.703	0.902	0.907	0.423	0.433	0.401	0.473	0.441	0.4	0.363	0.362	0.353	0.352	0.482	0.416	0.48	0.298
NCI-H1395	0.359	0.391	0.425	0.348	0.667	0.607	0.578	0.575	0.602	0.724	0.734	0.737	0.714	0.691	1.16	1.04	0.799	0.499
NCI-H1437	0.989	1.09	1.07	0.982	0.489	0.419	0.47	0.507	0.56	0.603	0.567	0.655	0.586	0.566	0.532	0.503	0.507	0.214
NCI-H1651	0.531	0.49	0.536	0.561	0.777	0.517	0.489	0.593	0.563	0.79	0.548	0.659	0.658	0.535	0.765	0.781	0.871	0.828
NCI-H1666	0.852	0.818	0.917	0.863	0.459	0.383	0.358	0.42	0.479	0.821	0.711	0.716	0.815	0.747	0.871	0.842	0.811	0.593
NCI-H1734	0.519	0.493	0.655	0.453	0.565	0.434	0.426	0.492	0.455	0.493	0.439	0.461	0.488	0.503	0.644	0.629	0.618	0.31

Cell Line	relative viability (AT-7519 + AZD7762; first compound 0.01 µM)	relative viability (AT-7519 + AZD7762; first compound 0.03162 µM)	relative viability (AT-7519 + AZD7762; first compound 0.3162 µM)	relative viability (AT-7519 + AZD7762; first compound 1 µM)	relative viability ([1]; first compound 0.08 µM)	relative viability ([1]; first compound 0.253 µM)	relative viability ([1]; first compound 0.8 µM)	relative viability ([1]; first compound 2.53 µM)	relative viability ([1]; first compound 8 µM)	relative viability ([2]; first compound 0.08 µM)	relative viability ([2]; first compound 0.253 µM)	relative viability ([2]; first compound 0.8 µM)	relative viability ([2]; first compound 2.53 µM)	relative viability ([2]; first compound 8 µM)	relative viability (AT-7519 + Trametinib; first compound 0.01 µM)	relative viability (AT-7519 + Trametinib; first compound 0.03162 µM)	relative viability (AT-7519 + Trametinib; first compound 0.3162 µM)	relative viability (AT-7519 + Trametinib; first compound 1 µM)
NCI-H1755	0.427	0.461	0.629	0.428	0.407	0.44	0.446	0.47	0.246	0.771	0.679	0.714	0.737	0.698	0.834	0.768	0.787	0.469
NCI-H1792	0.759	0.554	0.571	0.467	0.304	0.26	0.295	0.286	0.302	0.627	0.483	0.508	0.5	0.473	0.399	0.4	0.506	0.225
NCI-H1793	0.578	0.573	0.409	0.543	0.313	0.323		0.291	0.369	0.527	0.521	0.409	0.47	0.49	0.492	0.489	0.433	0.218
NCI-H1915	0.704	0.689	0.773	0.782	0.883	0.97	0.856	0.95	0.952	0.25	0.25	0.268	0.263	0.274	0.58	0.304	0.316	0.118
NCI-H1944	0.528	0.472	0.699	0.479	0.333	0.348	0.327	0.345	0.332	0.448	0.437	0.446	0.376	0.38	0.423	0.481	0.362	0.302
NCI-H1975	0.691	0.744	0.76	0.638	0.327	0.299	0.268	0.305	0.286	0.462	0.393	0.405	0.384	0.408	0.339	0.311	0.342	0.165
NCI-H1993	0.671	0.637	0.736	0.38	0.887	0.802	0.938	0.921	0.782	0.573	0.669	0.624	0.59	0.634	0.445	0.496	0.474	0.453
NCI-H2085	0.977	0.984	0.986	1.02	0.38	0.465	0.406	0.571	0.497	0.561	0.53	0.496	0.631	0.546	0.468	0.585	0.595	0.367
NCI-H2087	1.48	1.13	1.49	0.58	1.07	0.863	0.77	0.945	0.909	0.244	0.259	0.222	0.131	0.24	0.241	0.187	0.135	0.119
NCI-H2126	1	1.1	1.04	1.13	0.505	0.518	0.506	0.522	0.523	0.577	0.567	0.599	0.612	0.609	0.583	0.594	0.554	0.44
NCI-H2170	0.906	0.892	0.954	0.75	0.315	0.4	0.312	0.306	0.308	0.494	0.454	0.464	0.429	0.459	0.994	0.868	0.91	0.708
NCI-H2347	0.625	0.843	0.725	0.469	0.651	0.585	0.541	0.657	0.683	0.586	0.61	0.602	0.629	0.614	0.263	0.256	0.274	0.254
NCI-H2405	0.732	0.724	0.683	0.527	0.496	0.432	0.33	0.418	0.28	0.744	0.685	0.7	0.828	0.742	0.664	0.643	0.61	0.299
NCI-H3122	1.01	1.11	1.02	0.752	0.629	0.552	0.555	0.616	0.638	0.415	0.471	0.472	0.448	0.439	0.255	0.213	0.225	0.148
PC-3 [JPC-3]	0.908	0.844	0.671	0.992	0.79	0.771	0.663	0.713	0.694	0.843	0.793	0.833	0.883	0.814	0.715	0.667	0.767	0.53
PC-14	0.416	0.261	0.38	0.44	0.845	0.682	0.621	0.585	0.673	0.184	0.229	0.217	0.266	0.217	0.681	0.771	0.545	0.0618
RERF-LC-KJ	0.87	0.698	1.18	1.03	0.623	0.648	0.588	0.56	0.543	0.654	0.684	0.637	0.761	0.631	0.865	0.864	0.758	0.423
